Values after ≈ are worked out from the molar mass of the structure shown. Peptide text beside a SMILES is read from it. * marks the point of attachment. Orn(α-tetramethylguanidino) = CN(C)C(=N[C@@H](CCCN)C(=O)*)N(C)C
What was measured:
[1] = test system: E. coli Rosetta; experiment: Uptake of cf-labeled PrAMPs; type: cell-based, Escherichia coli
Description: Bacteria were grown in 25% MHBII medium overnight, diluted fourfold with fresh medium, and incubated to obtain an OD600 of ~1. The cultures were adjusted to an OD600 of 1, and cf-labeled peptide was added to achieve a final concentration of 23 µmol/L (~64 µg/mL). After 0 min, 90 min, and 180 min, two aliquots (300 µL) of the culture were transferred to two tubes. One tube was immediately stored on ice in the dark. The second sample was centrifuged (10,000× g, 4 °C, 3 min), and the supernatant was transferred to a fresh tube and stored on ice in the dark. The pellet was washed with ice cold PBS (300 µL) and centrifuged (10,000× g, 4 °C, 3 min), and the supernatant was transferred into a fresh tube. Both the supernatant and the pellet resuspended in 300 µL ice cold PBS were stored on ice in the dark. After 180 min, an aliquot of the unprocessed sample (100 µL) was transferred to a translucent 96-well plate, and the absorbance was measured at 600 nm. Aliquots (100 µL) of the original cell culture, supernatants, wash solutions, and resuspended pellets were transferred into black 96-well plates to measure the fluorescence in a PARADIGM^TM microplate reader in the top read position (λexc = 485 nm, λem = 535 nm). Experiments were performed three times on different days. The relative fluorescence units were normalized to the measured OD600 values of the cell culture.

[2] = test system: 70S ribosome extract of E. coli BW25113; experiment: Fluorescence polarization, Kd of cf-labeled peptides; type: binding, Escherichia coli; details: determined for the cf-labeled peptide; BW25113 ribosome extract; 28 °C, 90 min; 95% confidence interval in brackets; triplicate on at least two days; read-out: Kd, BW
Description: E. coli BW25113 and E. coli Rosetta pLysS were cultivated in LB medium and harvested at an OD600 of ~4 by centrifugation (5000× g, 30 min, 4 °C). The cell pellets were washed by resuspension in ribosome preparation buffer (20 mmol/L Hepes-KOH, 6 mmol/L MgCl2, 30 mmol/L NH4Cl, pH 7.6, 4°C) and subsequent centrifugation (5000× g, 30 min, 4 °C). Cell pellets were suspended in ribosome preparation buffer ([…]) containing freshly added 2-mercapotethanol (4 mmol/L). Lysozyme was added to the resuspended cells and incubated on ice for 30 min. The cell suspension was disrupted six times using a FastPrep-24^TM 5G instrument (MP Biomedicals, Solon, OH, USA) with BigPrep 50 mL setting (40 s, 4.0 m/s), incubated with DNase I (5 mL/L) on ice for one hour and centrifuged (16,000× g, 30 min, 4 °C). The cell debris was removed from the supernatant by centrifugation (32,000× g, 60 min, 4 °C), and the supernatant was centrifuged again (165,000× g, 17 h, 4 °C). The pellet was resuspended in ribosome preparation buffer (0.1 mL per g cell pellet) to obtain the 70S ribosome extract and stored at −80 °C. The ribosome concentration was estimated by recording the absorbance at 260 nm (1 AU for a ribosome concentration of 28 nmol/L). The molecular weight of the 70S E. coli ribosome was assumed to be 2.3 MDa.
Kd was determined using a ribosome extract and cf-labeled peptides in ribosome preparation buffer. Briefly, black 384-well plates (flat bottom, Greiner Bio-One GmbH) were blocked with casein (0.5%, w/v) in phosphate buffer containing 0.05% (v/v) Tween 20 at 4 °C overnight and washed three times with phosphate buffer. A 2-fold dilution series of the ribosome extract (20 μL per well) in ribosome preparation buffer was prepared in a black 384-well plate (23 dilution steps). The cf-labeled peptide was dissolved in ribosome preparation buffer (20 μL, 40 nmol/L), added to each well, and incubated at 28 ± 1 °C. After 90 min, the fluorescence polarization was measured on a PARADIGMTM microplate reader (Beckman Coulter, Salzburg, Austria) in the top read position (λexc = 485 nm, λem = 535 nm) in triplicate on at least two different days. Data were fitted to a nonlinear, dose–response logistical transition equation [y= y0 + a/(1 + (x/x0)b)] using the Levenberg–Marquardt algorithm, with dissociation constants (Kd) represented by the x0 coefficients (GraphPad Prism for Windows v. 5.02, San Diego, CA, USA).

[3] = test system: E. coli BL21 (DE3) sbmA::Tn10^Cm; type: cell-based, Escherichia coli
Description: The minimal inhibitory concentrations (MIC) were determined at least twice in triplicate using a liquid broth microdilution assay in sterile 96-well plates and a total volume of 100 μL per well. Aqueous peptide solutions were serially 2-fold diluted in 25% MHBII or 33% TSB medium in a volume of 50 µL. An overnight culture was diluted in 25% MHBII or 33% TSB medium to 1.5 × 10^7 CFU/mL, and an aliquot of 50 μL was added to each well. The final cell count in each well was 7.5 × 10^6 CFU/mL. The plates were incubated at 37 °C for 20 ± 2 h. The turbidity of each well was measured at a wavelength of 600 nm. The MIC was defined as the lowest peptide concentration where the turbidity was identical to medium only.
E. coli strain BL21(DE3) was randomly mutagenized by Tn10 insertion using the lambda phage lysate λNK1324 carrying a chloramphenicol resistance and grown on LB agar plates in the presence of chloramphenicol (15 µg/mL) at 30 °C overnight. The resistant colonies were transferred to 25% MHBII agar plates containing Api137 (32 or 64 µg/mL) and incubated again at 37 °C overnight. Genomic DNA was isolated by a Monarch® Genomic DNA purification kit (New England Biolabs, Frankfurt am Main, Germany) from the presumed double-resistant strains, and the sequences flanking the transposon insertion were determined by arbitrary primed PCR using arbitrary primer ARB6 and Tn10 transposon-specific primer IS10-R complementary to the IS10 element of Tn10 transposon. The first round of amplification included six cycles of denaturation (95 °C, 30 s), annealing (30 °C, 30 s), and extension (72 °C, 90 s), followed by 30 cycles of denaturation (95 °C, 30 s), annealing (45°C, 30 s), and extension (72 °C, 2 min), as well as a final extension (72 °C, 6 min). The second round of amplification used arbitrary primer ARB2 and primer IS10-R. The PCR consisted of 30 cycles of denaturation (95 °C, 30 s), annealing (52 °C, 30 s), and extension (72 °C, 2 min), followed by a final extension step (72 °C, 6 min). PCR products were purified with the NucleoSpin® Gel and a PCR cleanup kit (Macherey-Nagel, Düren, Germany) and sequenced using primer IS10-R (Eurofins MWG Operon, Ebersberg, Germany), and the corresponding protein was identified in a sequence database (UniProt and NCBI, 2021).

[4] = cf-labeled peptides 23 µmol/L, normalized fluorescence after 180 min

Row | Structure (SMILES) | uptake in E. coli Rosetta compared with Api137 [1, 4] | Kd [2] [nM] | normalized uptake of E. coli Rosetta, in words ([1]; cf-labeled peptides 23 µmol/L, 0, 90, 180 min) | MIC, 25% MHBII ([3]; BL21 (DE3) sbmA::Tn10^Cm, 25% MHBII containing IPTG (0.1 mmol/L)) [µg/mL] | MIC, 33% TSB ([3]; BL21 (DE3) sbmA::Tn10^Cm, 33% TSB containing IPTG (0.1 mmol/L)) [µg/mL] | uptake in E. coli Rosetta compared with E. coli BW25113 ([1]; cf-labeled peptide 23 µmol/L, normalized fluorescence (OD600) after 180 min) | uptake in E. coli Rosetta compared with Api88 [1, 4] | MIC in the E. coli BL21 sbmA::Tn10^Cm strain ([3]; medium not stated (Table 3: 25% MHBII and 33% TSB)) [µg/mL]
1 | CC[C@H](C)[C@H](NC(=O)[C@H](Cc1ccc(O)cc1)NC(=O)[C@@H](NC(=O)[C@@H]1CCCN1C(=O)[C@H](CCCNC(=N)N)NC(=O)[C@H](CC(N)=O)NC(=O)[C@H](CC(N)=O)NC(=O)[C@H](CCCN)N=C(N(C)C)N(C)C)C(C)C)C(=O)N1CCC[C@H]1C(=O)N[C@@H](CCCNC(=N)N)C(=O)N1CCC[C@H]1C(=O)N[C@@H](CCCNC(=N)N)C(=O)N1CCC[C@H]1C(=O)N1CCC[C@H]1C(=O)N[C@@H](Cc1c[nH]cn1)C(=O)N1CCC[C@H]1C(=O)N[C@@H](CCCNC(=N)N)C(=O)N[C@@H](CC(C)C)C(N)=O [Api88] ({Orn(α-tetramethylguanidino)}-NNRPVYIPRPRPPHPRL-NH2) | two- to threefold higher | 906 |  |  |  |  |  | 
2 | CC[C@H](C)[C@H](NC(=O)[C@H](Cc1ccc(O)cc1)NC(=O)[C@@H](NC(=O)[C@@H]1CCCN1C(=O)[C@H](CCCNC(=N)N)NC(=O)[C@H](CC(N)=O)NC(=O)[C@H](CC(N)=O)NC(=O)[C@H](CCCN)N=C(N(C)C)N(C)C)C(C)C)C(=O)N1CCC[C@H]1C(=O)N[C@@H](CCCNC(=N)N)C(=O)N1CCC[C@H]1C(=O)N[C@@H](CCCNC(=N)N)C(=O)N1CCC[C@H]1C(=O)N1CCC[C@H]1C(=O)N[C@@H](Cc1c[nH]cn1)C(=O)N1CCC[C@H]1C(=O)N[C@@H](CCCNC(=N)N)C(=O)N[C@@H](CC(C)C)C(=O)O [Api137] ({Orn(α-tetramethylguanidino)}-NNRPVYIPRPRPPHPRL-OH) |  | 382 | lowest uptake | 16 (≈ 6.98 µM) | 16 (≈ 6.98 µM) |  |  | 
3 | CC[C@H](C)[C@H](NC(=O)[C@@H]1CCCN1C(=O)[C@H](CCCNC(=N)N)NC(=O)[C@H](CC(N)=O)NC(=O)[C@H](CC(N)=O)NC(=O)CN)C(=O)N[C@@H](Cc1ccc(O)cc1)C(=O)N[C@H](C(=O)N1CCC[C@H]1C(=O)N[C@@H](CCCNC(=N)N)C(=O)N1CCC[C@H]1C(=O)N[C@@H](CCCNC(=N)N)C(=O)N1CCC[C@H]1C(=O)N1CCC[C@H]1C(=O)N[C@@H](Cc1c[nH]cn1)C(=O)N1CCC[C@H]1C(=O)N[C@@H](CCCNC(=N)N)C(=O)N1CCC[C@H]1C(=O)N[C@H](C(=O)N[C@@H](CCCNC(=N)N)C(=O)N[C@H](C(=O)O)C(C)C)[C@@H](C)CC)[C@@H](C)CC [Api805] (H-GNNRPIYIPRPRPPHPRPIRV-OH; N-terminus assumed) | fivefold higher | 557 |  |  |  | approximately threefold higher | twofold higher | 128
